Patent US4021566A, “2,5-Dimethyl-1-pyrrole-lower-alkanecarboxamides” (Sterling Drug Inc., priority 1975, dated 1977)
Values joined by “and” are separate entries in the source; they are usually repeats but may differ in a detail not shown here. Equal values may be shown once.

How the values were obtained:
gastric secretion = assay: Anti-secretory activity, pylorus ligation method of Shay et al.; assay type: in vivo, male albino Wistar rats; settings: rat; for Anti-Secretory % Inhibition of Free Acid / Anti-Secretory pH: oral; for Anti-Secretory % Inhibition of Free Acid: vs control; for Anti-Secretory pH: pH of gastric fluid
Protocol: In standard biological test procedures, described generally by Shay et al., Gastroenterology 5, 43 (1945) and 26, 906 (1954) and by Selmici et al., Acta Physiol. Acad. Sci. Hung. […] Anti-secretory activity was determined in male albino Wistar rats weighing approximately 180 g. using the method described by Shay et al. which is described as follows: the rats were divided into medicated groups of at least five rats each and control groups of ten rats. The rats were medicated orally once daily for two days prior to stomach ligation and once again immediately following ligation. All drugs were administered as the free base, and control rats received only the vehicle of medication. The rats were housed individually in wire cages, food was withdrawn forty-eight hours prior to surgery, and water was withdrawn at the time of surgery. Laparotomy was performed under light ether anesthesia, the pyloric-duodenal junction was ligated, and the wound was closed with metal clips and sprayed with a protective surgical dressing. Five hours following surgery, the rats were sacrificed, the stomach was removed, and the gastric juice collected. The gastric fluid was centrifuged, and total volume, color, and volume of solids were recorded. The pH of the gastric fluid was then determined on a Beckamn pH meter, and the "free" and "total" hydrochloric acid content of each gastric sample was determined by titrating an aliquot of the gastric fluid (diluted to approximately 10 ml. with distilled water) by titrating with 0.1N sodium hydroxide against Toepfers reagent and phenolphthalein, respectively. By determining the milliequivalents of hydrochloric acid per milliliter of gastric juice and knowing the total volume of gastric juice secreted by each rat, the total acid output can be calculated. Since pH is a function of "free" acid, the activity of the test compounds can be evaluated by comparison of the mean "free" acid of medicated rats with the mean "free" acid of the controls, and the activity can thus be expressed in terms of percent inhibition of free acid.

[1] = tested on: reserpine-induced stomach ulceration; assay: Anti-ulcer activity, reserpine-induced anti-ulcer test method of Selmici et al.; assay type: in vivo, male, albino, Sprague-Dawley rats; settings: rat, oral, reserpine 5.0 mg/kg i.m., vs control
Protocol: The anti-ulcer activity of the compounds was determined using the reserpine-induced anti-ulcer test method, described by Selmici et al., which is described briefly as follows: male, albino, Sprague-Dawley rats, weighing approximately 300 g., were divided into medicated and control groups of at least five rats each, and one positive control group of five rats medicated with a known drug at the active dose was run with each experiment. The rats were medicated forty-eight, twenty-four, and one hour before receiving an injection of reserpine. All test drugs were administered orally in terms of base, and the control rats received only the vehicle of medication. The rats were housed individually in wire cages, and food was withdrawn twenty-four hours prior to injection of reserpine, while water was allowed ad libitum. One hour following the third medication, 5.0 mg. of reserpine per kilogram of body weight in a concentration of 5 mg./ml. was injected intramuscularly in each rat. Eighteen hours after injection the rats were sacrificed, their stomachs removed, opened along the greater curvature, rinsed in warm saline, and pinned to a cork board for gross observation. The stomachs were examined for the number and size of ulcerations located in the glandular portion of the stomach with the aid of a one millimeter grid ocular with a 10x dissecting microscope. The degree of ulceration was arbitrarily graded according to the number and size of the ulcers as follows:
The points were added together and divided by the number of rats in each group to give an ulcer score, and the difference in the mean scores of the medicated and control group was expressed as percent inhibition of ulceration. Alternatively, the results can be expressed as a ratio of the total number of rats with any degree of ulceration (as the numerator) to the total number of rats in the test group (as the denominator).

Row | SMILES | Anti-Secretory % Inhibition of Free Acid (gastric secretion; dose 12.5 (mg/kg)) [%] | Anti-Secretory pH (gastric secretion; dose 12.5 (unit not in table; mg/kg)) | Anti-Secretory pH (gastric secretion; dose 25 (mg/kg)) | Anti-Secretory % Inhibition of Free Acid (gastric secretion; dose 25 (mg/kg)) [%] | Anti-Secretory pH (gastric secretion; dose 50 (mg/kg)) | Anti-Secretory % Inhibition of Free Acid (gastric secretion; dose 50 (mg/kg)) [%] | Anti-Secretory pH (gastric secretion; dose 100 (mg/kg)) | Anti-Secretory % Inhibition of Free Acid (gastric secretion; dose 100 (mg/kg)) | Anti-Ulcer % Inhibition ([1]; dose 25 (mg/kg)) [%] | Anti-Ulcer % Inhibition ([1]; dose 50 (mg/kg)) [%] | Anti-Ulcer % Inhibition ([1]; dose 100 (mg/kg)) [%] | Anti-Secretory pH (gastric secretion; dose 200 (mg/kg)) | Anti-Secretory % Inhibition of Free Acid (gastric secretion; dose 200 (mg/kg)) [%] | anti-secretory activity (in words) (gastric secretion; in vivo)
1 | Cc1c(C)c(C)n(CC(N)=O)c1C [Example 1, 2,3,4,5-tetramethyl-1-pyrroleacetamide] | 44 | 1.3 | 1.5 | 49 | 2.9 | 83 | 3.6 | 91% | 61 | 87 | 94 |  |  | 
2 | Cc1ccc(C)n1CC(N)=O [Example 2, 2,5-dimethyl-1-pyrroleacetamide] |  |  |  |  | 1.7 | 21 | 2.7 and 2.6 | 78% and 63% |  | 40 |  | 4.6 | 100 | 
3 | Cc1c(C)c(C)n(CCC(N)=O)c1C [Example 3, β-(2,3,4,5-tetramethyl-1-pyrrole)propionamide] |  |  |  |  |  |  | 2.4 | 60% | 36 | 66 |  |  |  | 
4 | NC(=O)Cn1cccc1 [Reference, pyrrole-1-acetamide, reference compound] |  |  |  |  |  |  | 1.7 | 46% |  |  |  |  |  | has anti-secretory activity
